In data set [1] the test system is Raw 264.7 cells. Nature of the data set: LN (Laminin 421)-induced immune cell migration, Transwell. The class given is cell-based. Conditions: Mus musculus, RAW264.7; 3 µM compound, LN (Laminin 421 1 µg/ml), 24 hours, % inhibition compared to control group; read-out: Migration inhibitor % (3uM). As to the method:
Cell migration was assessed based on the method described in the prior literature (Park, S. G. et al. Human lysyl-tRNA synthetase is secreted to trigger proinflammatory response. Proceedings of the National Academy of Sciences, 2005, 102.18: 6356-6361.). The specific experimental method is as follows. A Transwell (Corning#3421-5µm pore) was coated with gelatin (0.5mg/ml), and then Raw 264.7 cells (1 x 10^5 cells/well) were seeded in the upper chamber. Serum-free medium (Serum Free DMEM, 500 µl) containing LN (Laminin 421 1 µg/ml) was added to the lower chamber. Each compound was treated at a concentration of 3µM in the upper chamber. After 24 hours, the cells were fixed with 70% methanol for 30 minutes and stained with 50% hematoxylin for 30 minutes. Non-migrating cells on the upper side of the membrane were removed with a cotton swab, and the membrane was mounted on a slide. Migrating cells on the lower side of the membrane were observed under a high-power microscope, and the number of cells was measured from the obtained images and expressed as the inhibition rate (% inhibition) compared to the control group.

Data set [2] deals with T1, KARS1 and 37LR (Homo sapiens, UniProt Q15046).
T1 construct: KARS1 (1-207aa)
T1 sequence (Q15046 1-207): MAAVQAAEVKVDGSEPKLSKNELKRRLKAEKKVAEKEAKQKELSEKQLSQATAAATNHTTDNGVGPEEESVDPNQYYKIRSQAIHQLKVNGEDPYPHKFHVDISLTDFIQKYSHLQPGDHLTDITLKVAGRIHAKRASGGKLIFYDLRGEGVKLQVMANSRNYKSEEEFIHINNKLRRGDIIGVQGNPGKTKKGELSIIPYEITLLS
Nature of the data set: Cell-free ELISA of KARS1 and 37LR (laminin receptor) binding. The note with it: 10 µM compound, 1 hour, plate coated with KARS1 (1-207aa), LRF. As to the method:
Next, based on the mechanism of action, a cell-free ELISA analysis was conducted to select compounds with high inhibitory activity on the binding of KARS1 and LR (laminin receptor).

Data set [3] relates to Raw264.7 cells. Nature of the data set: KARS1-induced trans-migration assay. The class given is cell-based, mouse. Conditions: Mus musculus, RAW264.7; 1 µM compound; read-out: KARS1-induced Raw264.7 cell migration (% inhibition, 1uM). On the procedure: C0001 inhibits the binding of KARS1 and 67LR, thereby blocking the migration of monocytes/macrophages and suppressing inflammation. Accordingly, a trans-migration assay using mouse macrophages (Raw264.7) was conducted to preliminarily screen drugs that inhibit the migration of monocytes/macrophages.
Based on this, when KARS1 protein was directly treated externally instead of LN, the trans-migration of Raw264.7 was induced, and the cell migration inhibitory effect of the KARS1 inhibitor C0001 was confirmed. It was verified that C0001, which specifically binds to KARS1, can inhibit cell migration by binding to extracellular KARS1, in addition to the mechanism of inhibiting cell membrane migration of KARS1 induced by laminin and its binding to 67LR, thereby enabling this analysis to be used as a direct method for evaluating in vitro activity against KARS1.
Next, preliminary candidate substances with high inhibitory activity at 1 µM were treated at concentrations of 0.1~4 µM for analysis.

A short description of data set [4]: Microsomal metabolic stability, rat. It is filed as in vitro ADME. As to the method:
(§1) Metabolic stability (MS) evaluation was conducted for the selected compounds by measuring in vitro stability in two species, rat and human, according to the microsomal stability measurement method. As a result, it was identified that MS varied depending on the transformation of parts A, B, and C.

Data set [5] in a line: Microsomal metabolic stability, human. It is filed as in vitro ADME. On the procedure: as §1

Take `COc1ccc(CCN(Cc2ccc(N3CC[C@@H](C(=O)O)C3)cc2)c2nc3cccc(F)c3s2)cc1` [Compound 24, (R)-1-(4-(((7-fluorobenzo[d]thiazol-2-yl)(4-methoxyphenethyl)-amino)methyl)phenyl)pyrrolidine-3-carboxylic acid]: the inhibition at 3 µM in data set [1] came to 68%. Also, in data set [2], the inhibition at 10 µM was found to be 65.9%. The inhibition at 1 µM in data set [3] amounted to 96.3%.

Regarding `COc1ccc(CCN(Cc2nc3ccc(B(O)O)cc3n2C)c2nc3cccc(F)c3s2)cc1` [Compound 21, (2-(((7-fluorobenzo[d]thiazol-2-yl)(4-methoxyphenethyl)amino)-methyl)-1-methyl-1H-benzo[d]imidazol-6-yl)boronic acid], in data set [1], the inhibition at 3 µM stood at 36%. For the same compound, the inhibition at 10 µM in data set [2] was found to be 8.9%. Further, the inhibition at 1 µM in data set [3] was 26.1%.

With `COc1ccc(CCN(Cc2cccc(N3CC[C@H](C(=O)O)C3)c2)c2nc3cccc(F)c3s2)cc1` [Compound 22, (S)-1-(3-(((7-fluorobenzo[d]thiazol-2-yl)(4-methoxyphenethyl)amino)-methyl)phenyl)pyrrolidine-3-carboxylic acid], in data set [1], the inhibition at 3 µM was 19%. For the same compound, in data set [2], the inhibition at 10 µM is 52%. For the same compound, in data set [3], the inhibition at 1 µM came out at 43.4%.

As for `COc1ccc(CCN(Cc2nc3ccc(C(=O)O)cc3n2C)c2nc3cccc(F)c3s2)cc1` [Compound 27, 2-(((7-fluorobenzo[d]thiazol-2-yl)(4-methoxyphenethyl)amino)methyl)-1-methyl-1H-benzo[d]imidazole-6-carboxylic acid], in data set [1], the inhibition at 3 µM is 9%. In data set [2], the inhibition at 10 µM was determined as 14%. For the same compound, the inhibition at 1 µM in data set [3] is 9.1%.

In the case of `COc1ccc(CCN(Cc2cccc(N3CCC(C(=O)O)C3)c2)c2nc3cccc(F)c3s2)cc1` (centres unmarked) [Compound 17, 1-(3-(((7-fluorobenzo[d]thiazol-2-yl)(4-methoxyphenethyl)amino)-methyl)phenyl)pyrrolidine-3-carboxylic acid], the inhibition at 3 µM in data set [1] is 42%. Moreover, the inhibition at 10 µM in data set [2] was 79%. Moreover, in data set [3], the inhibition at 1 µM was determined as 5.6%. Moreover, in data set [4], the “Metabolic stability (% remaining at 30 min) Rat” value was 71%. Moreover, the “Metabolic stability (% remaining at 30 min) Human” value in data set [5] is reported as 58%.

Take `COc1ccc(CCN(Cc2ccc(N3CCC[C@H]3C(=O)O)cc2)c2nc3cccc(F)c3s2)cc1` [Compound 19, (4-(((7-fluorobenzo[d]thiazol-2-yl)(4-methoxyphenethyl)amino)-methyl)phenyl)-L-proline]: in data set [1], the inhibition at 3 µM came to 15%. In data set [2], the inhibition at 10 µM stood at 75.8%. Moreover, the inhibition at 1 µM in data set [3] stood at 69%.

On to `COc1ccc(CCN(Cc2ccc(C(=O)N3CCC[C@H]3C(=O)O)cc2)c2nc3cccc(F)c3s2)cc1` [Compound 14, (4-(((7-fluorobenzo[d]thiazol-2-yl)(4-methoxyphenethyl)amino)-methyl)benzoyl)-L-proline], for which the inhibition at 3 µM in data set [1] is 32%. For the same compound, the inhibition at 10 µM in data set [2] was 100%. Besides, the inhibition at 1 µM in data set [3] came out at 73.4%.

In the case of `COc1ccc(CCN(Cc2ccc(N3CC(C(=O)O)C3)cc2)c2nc3cccc(F)c3s2)cc1` [Compound 39, 1-(4-(((7-fluorobenzo[d]thiazol-2-yl)(4-methoxyphenethyl)amino)-methyl)phenyl)azetidine-3-carboxylic acid], the inhibition at 3 µM in data set [1] amounted to 51.9%. For the same compound, the inhibition at 10 µM in data set [2] was found to be 37.5%. Also, the inhibition at 1 µM in data set [3] came out at 97.4%.

Consider `COc1ccc(CCN(Cc2ccc(CCC(=O)O)cc2)c2nc3cccc(F)c3s2)cc1` [Compound 2, 3-(4-(((7-fluorobenzo[d]thiazol-2-yl)(4-methoxyphenethyl)amino)-methyl)phenyl)propanoic acid], for which the inhibition at 3 µM in data set [1] is 15.7%. Further, in data set [2], the inhibition at 10 µM turned out to be 79.4%. Besides, the inhibition at 1 µM in data set [3] stood at 98.1%.

As to `COc1ccc(CCN(Cc2ccc3c(c2)CN(CC(=O)O)C3)c2nc3cccc(F)c3s2)cc1` [Compound 32, 2-(5-(((7-fluorobenzo[d]thiazol-2-yl)(4-methoxyphenethyl)amino)-methyl)isoindolin-2-yl)acetic acid], the inhibition at 3 µM in data set [1] was determined as 45%. The inhibition at 10 µM in data set [2] was -27.9%. Besides, the inhibition at 1 µM in data set [3] turned out to be 18.1%.

For `COc1ccc(CCN(Cc2ccc(C(=O)N3CCC(C(=O)O)C3)cc2)c2nc3cccc(F)c3s2)cc1` (centres unmarked) [Compound 15, 1-(4-(((7-fluorobenzo[d]thiazol-2-yl)(4-methoxyphenethyl)amino)-methyl)benzoyl)pyrrolidine-3-carboxylic acid], the inhibition at 3 µM in data set [1] amounted to 0%. Further, in data set [2], the inhibition at 10 µM came to 86.4%. In data set [3], the inhibition at 1 µM turned out to be 54.4%.

Consider `COc1ccc(CCN(Cc2cccc(N3CCC[C@H]3C(=O)O)c2)c2nc3cccc(F)c3s2)cc1` [Compound 20, (3-(((7-fluorobenzo[d]thiazol-2-yl)(4-methoxyphenethyl)amino)-methyl)phenyl)-L-proline], for which the inhibition at 3 µM in data set [1] amounted to 18%. In addition, the inhibition at 10 µM in data set [2] was found to be 3.4%. The inhibition at 1 µM in data set [3] was 49.1%.

For `CCN(CC)C(=O)C#Cc1ccc(CN(CCc2ccc(OC)cc2)c2nc3cccc(F)c3s2)cc1` [Compound 3, N,N-diethyl-3-(4-(((7-fluorobenzo[d]thiazol-2-yl)(4-methoxyphenethyl)amino)methyl)phenyl)propiolamide], the inhibition at 3 µM in data set [1] is 0%. In data set [2], the inhibition at 10 µM came to 4.7%. Also, in data set [3], the inhibition at 1 µM stood at 22.6%.

Take `COc1ccc(CCN(Cc2ccc(-c3ccccc3)cc2)c2nc3cccnc3s2)cc1` [Compound 1, N-([1,1'-biphenyl]-4-ylmethyl)-N-(4-methoxyphenethyl)thiazolo[5,4-b]pyridin-2-amine]: in data set [1], the inhibition at 3 µM was determined as 8.8%. Moreover, in data set [2], the inhibition at 10 µM was -6%. Moreover, the inhibition at 1 µM in data set [3] was 19.8%.

As for `CNC(=O)C#Cc1ccc(CN(CCc2ccc(OC)cc2)c2nc3cccc(F)c3s2)cc1` [Compound 4, 3-(4-(((7-fluorobenzo[d]thiazol-2-yl)(4-methoxyphenethyl)amino)-methyl)phenyl)-N-methylpropiolamide], the inhibition at 3 µM in data set [1] came to 88%. In data set [2], the inhibition at 10 µM turned out to be 13.8%. Further, in data set [3], the inhibition at 1 µM worked out at 9.8%.

For `COc1ccc(CCN(Cc2ccc3c(c2)CN(C(N)=O)C3)c2nc3cccc(F)c3s2)cc1` [Compound 30, 5-(((7-fluorobenzo[d]thiazol-2-yl)(4-methoxyphenethyl)amino)-methyl)isoindoline-2-carboxamide], the inhibition at 3 µM in data set [1] was determined as 37.4%. In data set [2], the inhibition at 10 µM turned out to be 64%. In addition, the inhibition at 1 µM in data set [3] is 3.2%.

Consider `COc1ccc(CCN(Cc2ccc(C(=O)NCC(=O)O)cc2)c2nc3cccc(F)c3s2)cc1` [Compound 16, (4-(((7-fluorobenzo[d]thiazol-2-yl)(4-methoxyphenethyl)amino)-methyl)benzoyl)glycine], for which, in data set [1], the inhibition at 3 µM worked out at 33%. Besides, in data set [2], the inhibition at 10 µM stood at 68.2%. Also, in data set [3], the inhibition at 1 µM was found to be 86.2%.

As to `COc1ccc(CCN(Cc2ccc(NC3(C(=O)O)CCC3)cc2)c2nc3cccc(F)c3s2)cc1` [Compound 33, 1-((4-(((7-fluorobenzo[d]thiazol-2-yl)(4-methoxyphenethyl)amino)-methyl)phenyl)amino)cyclobutane-1-carboxylic acid], the inhibition at 3 µM in data set [1] was 15.7%. The inhibition at 10 µM in data set [2] was found to be 41.9%. In addition, in data set [3], the inhibition at 1 µM was 57.6%.

On to `O=C(O)[C@@H]1CCN(c2cccc(CN(CCc3ccc(OC(F)(F)F)cc3)c3nc4cccc(F)c4s3)c2)C1` [Compound 40, (R)-1-(3-(((7-fluorobenzo[d]thiazol-2-yl)(4-(trifluoromethoxy)-phenethyl)amino)methyl)phenyl)pyrrolidine-3-carboxylic acid], for which the inhibition at 3 µM in data set [1] was determined as 37.7%. Moreover, the inhibition at 10 µM in data set [2] was determined as 66.7%. Also, in data set [3], the inhibition at 1 µM came out at 76.1%.

With `COc1ccc(CCNc2ncc3ccn(C)c3n2)cc1` [Compound 6, N-(4-methoxyphenethyl)-7-methyl-7H-pyrrolo[2,3-d]pyrimidin-2-amine], the inhibition at 3 µM in data set [1] was 5.1%. Besides, in data set [2], the inhibition at 10 µM was found to be 14.8%. Further, the inhibition at 1 µM in data set [3] came to 23.5%.

Values taken from patent EP4656630A1, “NOVEL COMPOUND AS LYSYL-TRNA SYNTHETASE 1 INHIBITOR, AND USE THEREOF” (Zymedi Co., Ltd., priority 2023, dated 2024).
